{"source": "patent US20190175534A1", "about": "“PHARMACEUTICAL COMPOSITIONS COMPRISING DGLA AND USE OF SAME” (DS Biopharma Limited, priority 2016, published 2019)", "key": {"[1]": {"set-up": "species or system human", "conditions": "in vivo, po", "protocol": "A single-center, double-blind, randomized, placebo-controlled, two part Phase one study was performed in healthy male and female subjects aged 18 to 45 years inclusive. The primary objective of this study was to assess the safety and plasma pharmacokinetics (PK) of orally administered single doses and orally administered multiple doses of DS107G capsules (once daily for 28 days) in healthy subjects.\nSubjects were randomly assigned in a 3:1 ratio of DG107G to placebo by block randomization. Single dose part one of the study comprised three cohorts of eight subjects each, with the addition of Cohort four based on evaluation of the safety data of Cohort three by the Safety Monitoring Committee (SMC). A single oral dose of DS107G or matching placebo was administered to fasted subjects in Cohorts one to three (500, 1000, and 2000 mg, respectively) in parallel; subjects in Cohort four were administered a dose of 4000 mg following completion of Cohort three. Subjects in Cohort two received 1000 mg or matching placebo in the fed state at ≥14 days after the first dose.\nSafety assessments were monitored throughout the study.\nIn Part one of the study, subjects in Cohorts one to three were administered a single dose of study drug (either 500-, 1000-, or 2000-mg as 500-mg DS107G capsules or matching placebo capsules) in parallel on study Day 1 after at least an 8-hour fast, according to Table 20. Cohort 4 was initiated following the review of safety data from Cohort 3 by the SMC."}, "[2]": {"test_system": "spontaneous hypertensive rats", "assay": "Arterial pressure in spontaneous hypertensive rats after seven days of gavage, with intravenous phenylephrine challenge", "type": "in vivo, rat", "procedure": "An in vivo investigation of anti-hypertension efficacy following co-administration of DGLA and aspirin in spontaneous hypertensive rats was conducted. This experiment investigated the efficacy of DGLA when co-administered chronically with aspirin to reduce the hypertensive response induced acutely by phenylephrine in spontaneous hypertensive rats. Spontaneously hypertensive adult male rats (250-300 g), bred by Charles River Laboratories, were used for this assay. […] The animals were pair-housed by group (low dose+aspirin, high dose+aspirin or aspirin alone) for the duration of the oral gavage prior to surgery.\nThe test article was formulated using olive oil as the vehicle. This stock solution was then administered by oral gavage once per day for seven consecutive days. A low and a high dose (50 mg/kg and 500 mg/kg) were tested.\nA 5 mg/ml stock solution of aspirin was prepared by dissolving the appropriate amount of aspirin in 100% DMSO which was then diluted in water. The concentration of DMSO was less than 1%. The appropriate volume was administered by oral gavage to each animal once per day for seven consecutive days. The stock solution was stored at room temperature and was considered stable for the duration of the gavage.\nThe appropriate volume was administered to each animal by an intravenous injection at the end of the experiment on the surgery day. The stock solution was stored at 4° C. and was considered stable for the duration of the experiment.\nMale spontaneous hypertensive rats weighing approximately 300 g arrived at the facility at least two days before beginning the oral gavage. Animals were assigned to one of three groups (low dose+aspirin, high dose+aspirin, and aspirin), and were pair-housed during the acclimation period. […]\nRats were anesthetized with a 2.5-3.0% isoflurane-O2 mixture in an induction box. […] Blood pressure, systemic arterial pressure (SAP), and heart rate were monitored continuously for a total of half an hour. Hypertension was detected as an increase in diastolic, systolic or mean blood pressure. […]"}}}
{"smiles": "CCCCC[C@H](O)/C=C/C=C\\C/C=C\\CCCCCCC(=O)O", "note": "[Batch 15-HETrE, 15-Hydroxyeicosatrienoic acid]", "values": [{"measurement": "Free 15-HETrE plasma concentration", "setting": "[1]", "result": "< 100", "unit": "ng/mL"}]}
{"smiles": "CC(=O)Oc1ccccc1C(=O)O", "note": "[Aspirin, aspirin]", "values": [{"measurement": "Mean arterial pressure, Average SAP", "setting": "[2]; Aspirin gavage 7 days, phenylephrine 20 μg/kg iv", "result": 174.3}]}
{"smiles": "COc1ccccc1OCCNCC(O)COc1cccc2[nH]c3ccccc3c12", "note": "(stereo not drawn) [Carvedilol, carvedilol]", "values": [{"measurement": "Effect on mean systemic arterial pressure when added after phenylephrine", "setting": "[2]; 0.1 mg/kg i.v., aspirin-fed rats", "result": "significant decrease"}]}
